Experimental data reported in ChEMBL document CHEMBL3886467 (2016).

What follows are compounds tested against WD repeat-containing protein 5 (Homo sapiens, UniProt P61964) (assay: Binding Assay: All the FP based experiments were performed in MICROFLUOR 2 Black, "U" Bottom, 96-well Microtiter Plates (ThermoSci.) and FP was measured as mP units in a microplate reader (Tecan Ultra) with excitation at 485 nm and emission at 530 nm. To dilutions of WDR5Δ23 (2.2-0 uM) in 100 ul assay buffer (0.1M Phosphate, 25 mM KCl, 0.01% Triton, pH 6.5) 20 ul of a fixed concentration of the tracer in the assay buffer was added, followed by an addition of 5 ul DMSO to give 125 ul of total volume. Each assay had two controls: blank (without protein and tracer) and tracer only (without protein). The plates were incubated on a shaker at room temperature to reach equilibrium and mP values were measured at the 3 hour time point.).

Compound	IC50 [µM]
CC(=O)N[C@@H](C)C(=O)N[C@@H](C(=O)N[C@@H](C)C(N)=O)c1ccc(NC(=N)N)cc1	> 10
CCC(CC)(NC(=O)C(C)C)C(=O)N[C@@H](CCCNC(=N)N)C(=O)N(C)C	> 30
CCC(CC)(NC(=O)C(C)C)C(=O)N[C@@H](CCCNC(=N)N)C(=O)NC1(C(=O)NC(c2ccc(Cl)cc2)c2ccc(Cl)cc2)CCCC1	< 3
CC(=O)N[C@@H](C)C(=O)N[C@H](C(=O)N[C@@H](C)C(N)=O)c1ccc(NC(=N)N)cc1	> 10
CCNC(=O)[C@H](CCCNC(=N)N)NC(=O)C(CC)(CC)NC(=O)CC	< 10
CCC(CC)(NC(=O)C(C)C)C(=O)N[C@H](CCCNC(=N)N)C(=O)NC1(C(=O)NC(c2ccc(Cl)cc2)c2ccc(Cl)cc2)CCCC1	< 10
